In US10508088B2, “Methods using HDAC11 inhibitors” (FORMA Therapeutics, Inc., priority 2016, dated 2019) one finds IC50 data, which are given here for 32 molecules.

Sequence of Full length human recombinant HDAC11 (Q96DB2 whole entry): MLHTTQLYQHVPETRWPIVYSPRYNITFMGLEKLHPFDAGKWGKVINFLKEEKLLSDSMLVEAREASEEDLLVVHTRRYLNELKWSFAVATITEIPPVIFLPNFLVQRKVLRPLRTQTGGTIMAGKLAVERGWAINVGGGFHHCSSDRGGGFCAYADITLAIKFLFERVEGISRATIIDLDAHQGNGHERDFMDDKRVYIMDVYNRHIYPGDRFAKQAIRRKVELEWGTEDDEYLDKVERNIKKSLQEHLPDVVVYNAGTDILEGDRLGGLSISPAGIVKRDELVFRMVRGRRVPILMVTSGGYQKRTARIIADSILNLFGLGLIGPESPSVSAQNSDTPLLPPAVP

One assay has as its target Full length human recombinant HDAC11 (Homo sapiens (Human), UniProt Q96DB2). Description: Enzymatic HDAC11 assay, electrophoretic mobility shift. The assay is classed as biochemical. As to conditions: substrate FAM-RHKK(tri-fluor-Ac)-NH2, read-out: HDAC11 IC50 Range. As to the method:
The enzymatic HDAC11 assay was performed using electrophoretic mobility shift assay. Full length human recombinant HDAC11 protein was expressed in baculoviral system and purified by affinity chromatography. The enzymatic reactions were assembled in 384 well plates in a total volume of 25 μL in a reaction buffer composing: 100 mM HEPES, pH 7.5, 25 mM KCl, 0.1% bovine serum albumin, 0.01% Triton X-100, 1% DMSO (from compounds) 2 μM of the fluorescently labeled peptide substrate and enzyme. The enzyme was added at a final concentration of 10 nM. The peptide substrate FAM-RHKK(tri-fluor-Ac)-NH2 was used. The compounds were tested at 12 concentrations spaced by 3× dilution intervals. Negative control samples (0%-inhibition in the absence of inhibitor) and positive control samples (100%-inhibition) were assembled in replicates of four in each assay plate. The reactions were incubated at 25° C. and quenched by the addition of 45 μL of termination buffer (100 mM HEPES, pH 7.5, 0.01% Triton X-100, 0.05% SDS).
The terminated assay plates were analyzed on LabChip® 3000 microfluidic electrophoresis instrument (Perkin Elmer/Caliper Life Sciences). The fluorescence intensity of the electrophoretically separated de-acetylated product and substrate peptide was measured. Activity in each sample was determined as the product to sum ratio (PSR):P/(S+P), where P is the peak height of the product peptide and S is the peak height of the substrate peptide. Percent inhibition (Pinh) is determined using the following equation: Pinh=(PSR0%−PSRinh)/(PSR0%−PSR100%)*100,
where PSRinh is the product sum ratio in the presence of inhibitor, PSR0% is the average product sum ration in the absence of inhibitor and PSR100% is the average product sum ratio in 100%-inhibition control samples. The IC50 values of inhibitors were determined by fitting the percent inhibition curves with 4 parameter dose-response model using XLfit 4 software.
Take `O=C(NO)c1cccc2c1CC1(CCN(Cc3ccc(Cl)cc3)C1=O)C2` (centres unmarked) [II-1, 1′-(4-chlorobenzyl)-N-hydroxy-2′-oxo-1,3-dihydrospiro[indene-2,3′-pyrrolidine]-4-carboxamide]: the IC50 was less than 0.5 µM. As for `CN1CCC2(Cc3cccc(C(=O)NO)c3C2)C1=O` (centres unmarked) [II-2, N-hydroxy-1′-methyl-2′-oxo-1,3-dihydrospiro[indene-2,3′-pyrrolidine]-4-carboxamide], the IC50 was more than 1 µM. `O=C(NO)c1cccc2c1C[C@@]1(CCN(Cc3ccc(Cl)c(C(F)(F)F)c3)C1=O)C2` [II-3, (R)-1′-(4-chloro-3-(trifluoromethyl)benzyl)-N-hydroxy-2′-oxo-1,3-dihydrospiro[indene-2,3′-pyrrolidine]-4-carboxamide]: the IC50 was less than 0.5 µM. With `O=C(NO)c1cccc2c1CC1(CCN(Cc3ccc(C(F)(F)F)c(F)c3)C1=O)C2` (centres unmarked) [II-5, 1′-(3-fluoro-4-(trifluoromethyl)benzyl)-N-hydroxy-2′-oxo-1,3-dihydrospiro[indene-2,3′-pyrrolidine]-4-carboxamide], the IC50 is less than 0.5 µM. Still for that read-out and setting: to `O=C(NO)c1cccc2c1CC1(CCN(Cc3ccc(C(F)(F)F)cc3)C1=O)C2` (centres unmarked) [II-6, N-hydroxy-2′-oxo-1′-(4-(trifluoromethyl)benzyl)-1,3-dihydrospiro[indene-2,3′-pyrrolidine]-4-carboxamide] belongs less than 0.5 µM; to `O=C(NO)c1cccc2c1CC1(CCN(Cc3ccc(F)cc3)C1=O)C2` (centres unmarked) [II-7, 1′-(4-fluorobenzyl)-N-hydroxy-2′-oxo-1,3-dihydrospiro[indene-2,3′-pyrrolidine]-4-carboxamide], 0.5 to 1 µM; to `CS(=O)(=O)c1ccc(CN2CCC3(Cc4cccc(C(=O)NO)c4C3)C2=O)cc1` (centres unmarked) [II-8, N-hydroxy-1′-(4-(methylsulfonyl)benzyl)-2′-oxo-1,3-dihydrospiro[indene-2,3′-pyrrolidine]-4-carboxamide], more than 1 µM. For `O=C(NO)c1cccc2c1CC1(CCN(C3CC3)C1=O)C2` (centres unmarked) [II-9, 1′-cyclopropyl-N-hydroxy-2′-oxo-1,3-dihydrospiro[indene-2,3′-pyrrolidine]-4-carboxamide], the IC50 was more than 1 µM. `O=C(NO)c1cccc2c1CC1(CCN(CC3CCC3)C1=O)C2` (centres unmarked) [II-10, 1′-(cyclobutylmethyl)-N-hydroxy-2′-oxo-1,3-dihydrospiro[indene-2,3′-pyrrolidine]-4-carboxamide]: the IC50 is more than 1 µM. Still for that read-out and setting: to `O=C(NO)c1cccc2c1CC1(CCN(c3ccc(C(F)(F)F)cc3)C1=O)C2` (centres unmarked) [II-11, N-hydroxy-2′-oxo-1′-(4-(trifluoromethyl)phenyl)-1,3-dihydrospiro[indene-2,3′-pyrrolidine]-4-carboxamide] belongs more than 1 µM. Regarding `O=C(NO)c1cccc2c1CC1(CCN(c3cccc(C(F)(F)F)c3)C1=O)C2` (centres unmarked) [II-12, N-hydroxy-2′-oxo-1′-(3-(trifluoromethyl)phenyl)-1,3-dihydrospiro[indene-2,3′-pyrrolidine]-4-carboxamide], the IC50 was in the range of 0.5 to 1 µM.

Take `O=C(NO)c1cccc2c1CC1(CCN(c3ccccc3C(F)(F)F)C1=O)C2` (centres unmarked) [II-13, N-hydroxy-2′-oxo-1′-(2-(trifluoromethyl)phenyl)-1,3-dihydrospiro[indene-2,3′-pyrrolidine]-4-carboxamide]: the IC50 is more than 1 µM. In the case of `O=C(NO)c1cccc2c1CC1(CCN(Cc3ccccc3)C1=O)C2` (centres unmarked) [II-14, 1′-benzyl-N-hydroxy-2′-oxo-1,3-dihydrospiro[indene-2,3′-pyrrolidine]-4-carboxamide], the IC50 was more than 1 µM. The same measure, in the same setting: to `O=C(NO)c1cccc2c1CC1(CCN(CCCc3ccccc3)C1=O)C2` (centres unmarked) [II-15, N-hydroxy-2′-oxo-1′-(3-phenylpropyl)-1,3-dihydrospiro[indene-2,3′-pyrrolidine]-4-carboxamide] belongs more than 1 µM. Still for that read-out and setting: to `O=C(NO)c1cccc2c1CC1(CCN(Cc3ccc(-c4ccccc4)cc3)C1=O)C2` (centres unmarked) [II-16, 1′-([1,1′-biphenyl]-4-ylmethyl)-N-hydroxy-2′-oxo-1,3-dihydrospiro[indene-2,3′-pyrrolidine]-4-carboxamide] belongs less than 0.5 µM; to `Cc1cccc(CN2CCC3(Cc4cccc(C(=O)NO)c4C3)C2=O)c1` (centres unmarked) [II-17, N-hydroxy-1′-(3-methylbenzyl)-2′-oxo-1,3-dihydrospiro[indene-2,3′-pyrrolidine]-4-carboxamide], 0.5 to 1 µM.

As to `O=C(NO)c1cccc2c1CC1(CCN(Cc3cccc(-c4ccccc4)c3)C1=O)C2` (centres unmarked) [II-18, 1′-([1,1′-biphenyl]-3-ylmethyl)-N-hydroxy-2′-oxo-1,3-dihydrospiro[indene-2,3′-pyrrolidine]-4-carboxamide], the IC50 was less than 0.5 µM. For `COc1ccc(CN2CCC3(Cc4cccc(C(=O)NO)c4C3)C2=O)cc1` (centres unmarked) [II-19, N-hydroxy-1′-(4-methoxybenzyl)-2′-oxo-1,3-dihydrospiro[indene-2,3′-pyrrolidine]-4-carboxamide], the IC50 is more than 1 µM. Consider `COc1cccc(CN2CCC3(Cc4cccc(C(=O)NO)c4C3)C2=O)c1` (centres unmarked) [II-20, N-hydroxy-1′-(3-methoxybenzyl)-2′-oxo-1,3-dihydrospiro[indene-2,3′-pyrrolidine]-4-carboxamide], for which the IC50 is more than 1 µM. Still for that read-out and setting: to `O=C(NO)c1cccc2c1CC1(CCN(Cc3c(Cl)cccc3Cl)C1=O)C2` (centres unmarked) [II-21, 1′-(2,6-dichlorobenzyl)-N-hydroxy-2′-oxo-1,3-dihydrospiro[indene-2,3′-pyrrolidine]-4-carboxamide] belongs 0.5 to 1 µM; to `O=C(NO)c1cccc2c1CC1(CCN(Cc3cccc(Cl)c3Cl)C1=O)C2` (centres unmarked) [II-22, 1′-(2,3-dichlorobenzyl)-N-hydroxy-2′-oxo-1,3-dihydrospiro[indene-2,3′-pyrrolidine]-4-carboxamide], less than 0.5 µM. Consider `Cc1ccccc1CN1CCC2(Cc3cccc(C(=O)NO)c3C2)C1=O` (centres unmarked) [II-23, N-hydroxy-1′-(2-methylbenzyl)-2′-oxo-1,3-dihydrospiro[indene-2,3′-pyrrolidine]-4-carboxamide], for which the IC50 is more than 1 µM.

Take `O=C(NO)c1cccc2c1CC1(CCN(Cc3cccnc3)C1=O)C2` (centres unmarked) [II-24, N-hydroxy-2′-oxo-1 ‘-(pyridin-3-ylmethyl)-1,3-dihydrospiro[indene-2,3’-pyrrolidine]-4-carboxamide]: the IC50 was more than 1 µM. Regarding `O=C(NO)c1cccc2c1CC1(CCN(Cc3ccccc3Cl)C1=O)C2` (centres unmarked) [II-25, 1′-(2-chlorobenzyl)-N-hydroxy-2′-oxo-1,3-dihydrospiro[indene-2,3′-pyrrolidine]-4-carboxamide], the IC50 is more than 1 µM. Still for that read-out and setting: to `O=C(NO)c1cccc2c1CC1(CCN(Cc3cccc(F)c3)C1=O)C2` (centres unmarked) [II-26, 1′-(3-fluorobenzyl)-N-hydroxy-2′-oxo-1,3-dihydrospiro[indene-2,3′-pyrrolidine]-4-carboxamide] belongs more than 1 µM; to `O=C(NO)c1cccc2c1CC1(CCN(Cc3ccc(OC(F)(F)F)cc3)C1=O)C2` (centres unmarked) [II-27, N-hydroxy-2′-oxo-1′-(4-(trifluoromethoxy)benzyl)-1,3-dihydrospiro[indene-2,3′-pyrrolidine]-4-carboxamide], less than 0.5 µM; to `O=C(NO)c1cccc2c1CC1(CCN(Cc3cc(F)cc(F)c3)C1=O)C2` (centres unmarked) [II-28, 1′-(3,5-difluorobenzyl)-N-hydroxy-2′-oxo-1,3-dihydrospiro[indene-2,3′-pyrrolidine]-4-carboxamide], more than 1 µM. The same measure, in the same setting: to `O=C(NO)c1cccc2c1CC1(CCN(Cc3ccccc3C(F)(F)F)C1=O)C2` (centres unmarked) [II-29, N-hydroxy-2′-oxo-1′-(2-(trifluoromethyl)benzyl)-1,3-dihydrospiro[indene-2,3′-pyrrolidine]-4-carboxamide] belongs 0.5 to 1 µM; to `O=C(NO)c1cccc2c1CC1(CCN(Cc3cccc(Cl)c3)C1=O)C2` (centres unmarked) [II-30, 1′-(3-chlorobenzyl)-N-hydroxy-2′-oxo-1,3-dihydrospiro[indene-2,3′-pyrrolidine]-4-carboxamide], less than 0.5 µM. The same measure, in the same setting: to `O=C(NO)c1cccc2c1CC1(CCN(Cc3cccc(C(F)(F)F)c3)C1=O)C2` (centres unmarked) [II-31, N-hydroxy-2′-oxo-1′-(3-(trifluoromethyl)benzyl)-1,3-dihydrospiro[indene-2,3′-pyrrolidine]-4-carboxamide] belongs less than 0.5 µM.

The target in the next assay is Recombinant N-terminal GST tag full-length human HDAC11 (Homo sapiens (Human), UniProt Q96DB2). Briefly: Probe binding HDAC11 assay, time resolved fluorescence (TRF). As to conditions: read-out: HDAC11 IC50 Range.
Sequence of Recombinant N-terminal GST tag full-length human HDAC11 (Q96DB2 whole entry): as above
As for `O=C(NCc1ccccc1)ONC(=O)c1cccc(Nc2nc3cc(-c4ccccc4)c(C(F)(F)F)cc3[nH]2)c1` [Example 37-1, N-((benzylcarbamoyl)oxy)-3-((5-phenyl-6-(trifluoromethyl)-1H-benzo[d]imidazol-2-yl)amino)benzamide], the half-maximal inhibitory concentration (IC50) is less than 0.5 µM. On the same count and under the same terms, to `CN(c1cccc(C(=O)NOC(=O)NCc2ccccc2)c1)c1nc2cc(C#N)c(C(F)(F)F)cc2[nH]1` [Example 37-2, N-((benzylcarbamoyl)oxy)-3-((5-cyano-6-(trifluoromethyl)-1H-benzo[d]imidazol-2-yl)(methyl)amino)benzamide] belongs more than 1 µM.
